Test system: LbetaT2 cells
Experiment: Intracellular calcium mobilization (Fura2) in LbetaT2 cells
Assay type: cell-based, murine
Conditions: pre-treatment with 100 nM cetrorelix; data not shown
Experimental: Figure 5 Effect of treatments on intracellular calcium mobilization. Cells were loaded with Fura 2-AM. At the time of the experiment 100 µM EGTA was added 30 sec before addition of 300 µM of CaCl2 (Ca^2+) to the medium as indicated, and cells were then stimulated with 10 nM of wild type (WT), mutant (R31C) or equimolar combination (10 nM WT +10 nM R31C) or vehicle for 3 min. In the upper panel, representative curves of single cell recording. Each experiment mean was analysed using One-way ANOVA followed by Tukey's Multiple comparison test. In the lower panels, histograms show the means ± SEM (n = 4) of the response to ligands as calcium peak and as area under the curve (AUC). […] Representative of at least three independent experiments, *p<0.05.
LbetaT2 cells were kept in serum free medium overnight and then loaded with 2 µM Fura2-AM for 45 min at 37°C. The experiment was conducted in HEPES buffer (in mM; 116 NaCl, 5.6 KCl, 1.2 MgCl2, 5 NaHCO3, 1 NaH2PO4, 20 HEPES ph 7.4) in presence of extracellular Ca^2+ (EGTA 100 µM + CaCl2 300 µM). Single images of fluorescent emission at 510 nm under excitation at 340 and 380 nm were taken every 5 Sec. Changes in [Ca^2+]i in response to GnRHs were monitored using the Fura2 340/380 fluorescence ratio. Basal ratio was arbitrarily considered as 1. Ca^2+ responses over basal level were given either as maximal rise of [Ca^2+]i or as area under the curve (for 2 min after agonist addition).

cetrorelix [reference compound]
calcium responses to WT and R31C after antagonist pre-treatment: abolished responses to both ligands

Source: paper PMC3723855, “R31C GNRH1 Mutation and Congenital Hypogonadotropic Hypogonadism” (PLoS ONE, 2013)
